According to PMC11641755, “Features of Highly Homologous T-Cell Receptor Repertoire in the Immune Response to Mutations in Immunogenic Epitopes” (International Journal of Molecular Sciences, 2024):

Key:
[1] = tested on: TCR NYN-2 (Jurkat E6-1 TPR cells); assay type: cell-based, human
[2] = tested on: TCR NYN-3 (Jurkat E6-1 TPR cells); assay type: cell-based, human
[3] = tested on: NYN peptide-specific TCRs (NYN-1 to NYN-4 Jurkat E6-1 TPR cell lines); assay type: cell-based, human
[4] = tested on: TCR NYN-1 (Jurkat E6-1 TPR cells); assay type: cell-based, human
[5] = tested on: TCR NYN-4 (Jurkat E6-1 TPR cells); assay: Jurkat E6-1 TPR NFAT-eGFP reporter activation, transgenic TCR NYN-4, peptide-loaded K562-A*24:02; assay type: cell-based, human
TCR^NYN-I = conditions: ref 20 (Deng et al.); cited from earlier work
TCR^NYN-II = conditions: ref 20 (Deng et al.); cited from earlier work

Sequence: NYDYLYRLF [N450D]
- effect of the mutation on response / affinity of NYN-2 (in words) [1]: increased the affinity
- effect of the mutation on response / affinity of NYN-3 (in words) [2]: increased the affinity
- effect of the mutation on the T-cell response / recognition (in words) [3]: did not affect the T-cell response

Sequence: NYKYLYRLF [N450K]
- effect of the mutation on response / affinity of NYN-1 (in words) [4]: remained preserved
- reduction in the recognition compared to wild-type NYN ([5]; TCR NYN-4, from EC50 values): up to 400 fold
- recognition / response of TCR^NYN-I (in words) (TCR^NYN-I): remained preserved
- recognition / response of TCR^NYN-II (in words) (TCR^NYN-II): remained preserved

Sequence: NYNYLYRFF [L455F]
- reduction in the recognition compared to wild-type NYN ([1]; TCR NYN-2, from EC50 values): 23 fold
- effect of the mutation on the T-cell response / recognition (in words) [3]: did not affect the T-cell response

Sequence: NYNYLYRLL [F456L]
- effect of the mutation on the T-cell response / recognition (in words) [3]: did not affect the T-cell response

Sequence: NYNYMYRLF [L452M]
- effect of the mutation on the T-cell response / recognition (in words) [3]: did not affect the T-cell response

Sequence: VYFLQSINF
- GFP expression compared to NYN ([4]; NYN-1 cell line, K562 loaded with 0.8 μM peptide): the same level of GFP expression as NYN
- GFP expression compared to NYN ([1]; NYN-2 cell line, K562 loaded with 0.8 μM peptide): the same level of GFP expression as NYN
- GFP expression compared to NYN ([2]; NYN-3 cell line, K562 loaded with 0.8 μM peptide): 1.5 times lower
- GFP expression compared to NYN ([5]; NYN-4 cell line, K562 loaded with 0.8 μM peptide): 1.5 times lower
- recognition by all NYN-specific TCRs (cross-reactivity) ([3]; K562 loaded with 0.8 μM of each epitope): recognized
